Results taken from patent US9242981B2, “Fused pyrazole derivatives as novel ERK inhibitors” (Merck Sharp & Dohme Corp., priority 2010, dated 2016).

Experiments:
ERK protein = ERK protein (Mus musculus, UniProt P63085); assay: TdF (Temperature Dependence Fluorescence, thermal shift) assay for ERK; type: binding; conditions: Table 2; 3 μM ERK protein
Source text: The SAR (Structure Activity Relationship) for ERK ligands covered by this invention was interrogated using the TdF (Temperature Dependence Fluorescence) assay or best known as thermal shift assay. (M. W. Pantoliano, et al., “High-density miniaturized thermal shift assays as a general strategy for drug discovery,” J. Biomol. Screen 6 (2001) 429-440) The TdF assay was mainly conducted in the 96-well based CHROMO-4 real time fluorescence plate reader (BioRad). The Sypro Orange (Sigma-Aldrich), environmentally sensitive fluorescence dye, was used to monitor the protein folding-unfolding transition. Protein-ligand binding was gauged by the change (or shift) in the unfolding transition temperature (ΔTm) acquired at protein alone with respect to protein in the presence of ligand of interest.
Compound of interest was first prepared in DMSO stock (typical concentration: 10 mM). […] Final percentage of DMSO resided in the sample was 2%. The sample plate was heated from 30° C. to 90° C. with thermal ramping rate of 1° C./min. The fluorescence signals were acquired with excitation and emission wavelengths centered at 490 and 560 nm respectively. The instrument thermal stability was ±0.2° C. The melting temperatures (Tm) for ERK protein under aforementioned conditions occurred at […] and 64.8±0.2° C. respectively.
The derivation of TdF-based ligand binding affinity constant (Kd) followed closely those previously formulated by Brandts and Lin. (J. F. Brandts, L.-N. Lin, “Study of strong to ultratight protein interactions using differential scanning calorimetry,” Biochemistry 29 (1990) 6927-6940). In brief, the binding constant of the ligand at the Tm is expressed as below:
[formula] where T0 is the midpoint of unfolding for unliganded protein and Tm is the midpoint of unfolding in presence of ligand. [LTm] is free ligand at Tm. The ΔHu and ΔCpu are the enthalpy of unfolding and heat capacity change of unfolding for the protein respectively. Following algorithm derived by Winsor and coworker, the T0, ΔHu and ΔCpu can be determined separately from nonlinear regression fitting the protein alone melting curve:
[formula] where F(T) is the observed fluorescence intensity at any temperature T, Yn, and Yu are the predicted fluorescence intensities for fully folded and unfolded protein, respectively; mn and mu are slope correction for changes in Yn and Yu with respect to changes in temperature (analogously replace T0 with Tm in the above equation for liganded protein to yield Tm). (Mayhood, T. W., Windsor, W. T., “Ligand binding affinity determined by temperature-dependent circular dichroism: Cyclin-dependent kinase 2 inhibitors,” Analytical Biochemistry 345 (2005) 187-197).
[formula] where ΔHL (T) is the van't Hoff enthalpy of ligand binding at temperature T and ΔCpL is the heat capacity upon ligand binding. For simplicity, the ΔCpL and ΔHL (T) were set to zero and -7 kcal/mol respectively. […]

Mouse ERK2 protein = Mouse ERK2 protein (Mus musculus (Mouse), UniProt P63085); assay: Coupled MEK1/ERK2 IMAP assay or Active ERK2 IMAP assay; type: biochemical
Chain of Mouse ERK2 protein (P63085 whole entry): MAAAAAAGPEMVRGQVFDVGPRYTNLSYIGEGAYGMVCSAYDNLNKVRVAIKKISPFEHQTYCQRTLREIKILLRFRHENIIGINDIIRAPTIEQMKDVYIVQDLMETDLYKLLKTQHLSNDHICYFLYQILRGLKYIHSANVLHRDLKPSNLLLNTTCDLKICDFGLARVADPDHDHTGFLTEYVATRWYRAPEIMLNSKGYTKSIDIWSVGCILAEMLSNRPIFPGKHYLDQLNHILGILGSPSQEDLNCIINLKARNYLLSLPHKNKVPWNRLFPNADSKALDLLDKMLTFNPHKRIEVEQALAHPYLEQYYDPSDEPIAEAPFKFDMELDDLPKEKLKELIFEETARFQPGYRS

Chain of ERK protein (P63085 2-358 limits assumed): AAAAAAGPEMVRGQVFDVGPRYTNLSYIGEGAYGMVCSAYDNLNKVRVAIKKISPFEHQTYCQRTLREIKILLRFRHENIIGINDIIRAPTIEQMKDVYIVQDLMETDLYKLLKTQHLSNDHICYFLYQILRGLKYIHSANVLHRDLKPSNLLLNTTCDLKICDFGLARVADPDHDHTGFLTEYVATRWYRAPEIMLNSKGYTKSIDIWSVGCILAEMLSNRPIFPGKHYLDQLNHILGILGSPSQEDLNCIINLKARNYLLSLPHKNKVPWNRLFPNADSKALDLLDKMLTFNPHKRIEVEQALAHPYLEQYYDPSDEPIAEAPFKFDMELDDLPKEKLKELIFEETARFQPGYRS

| Compound | Kd (ERK protein) [nM] | IC50 (Mouse ERK2 protein; Table 2, 30 μM ATP) [nM] | IC50 (Mouse ERK2 protein; Table 1, class symbols, 30 μM ATP) [nM] |
| --- | --- | --- | --- |
| Cn1cc(CN2CCC[C@@H](NC(=O)N3CCc4[nH]nc(-c5ccncc5)c4C3)C2)c2ccccc21 [Compound 60, 1,4,6,7-tetrahydro-N-[1-[(1-methyl-1H-indol-3-yl)methyl]-3(R)-piperidinyl]-3-(4-pyridinyl)-5H-pyrazolo[4,3-c]pyndine-5-carboxamide] | 1.12 | 1.24 |  |
| Cn1c(CN2CCC[C@@H](NC(=O)N3CCc4[nH]nc(-c5ccncc5)c4C3)C2)cc2ccccc21 [Compound 61, 1,4,6,7-tetrahydro-N-[1-[(1-methyl-1H-indol-2-yl)methyl]-3(R)-piperidinyl]-3-(4-pyridinyl)-5H-pyrazolo[4,3-c]pyridine-5-carboxamide] | 0.47 | 0.3 |  |
| COc1cccc(F)c1CN1CC(NC(=O)N2CCc3[nH]nc(-c4ccnc(C)c4)c3C2)CC(C(F)(F)F)C1 (stereo not shown) [Compound 123, N-[1-[(2-fluoro-6-methoxyphenyl)methyl]-5-(trifluoromethyl)-3-piperidinyl]-1,4,6,7-tetrahydro-3-(2-methyl-4-pyridinyl)-5H-pyrazolo[4,3-c]pyridine-5-carboxamide] | 0.06 | 4.3 |  |
| Cc1cccc(C)c1CN1CCC[C@@H](NC(=O)N2CCc3[nH]nc(-c4ccc5nccn5c4)c3C2)C1 [Compound 110] | 0.03 | 5.3 |  |
| Cc1cccc(C)c1CN1CCC[C@@H](NC(=O)N2CCc3[nH]nc(-c4ccncc4)c3C2)C1 [Compound 71, N-[1-[(2,6-dimethylphenyl)-methyl]-3(R)-piperidinyl]-1,4,6,7-tetrahydro-3-(4-pyridinyl)-5H-pyrazolo[4,3-c]pyridine-5-carboxamide] | 0.15 | 2.07 |  |
| Cc1cc(-c2n[nH]c3c2CN(C(=O)N[C@@H]2CCCN(Cc4cccc5ccccc45)C2)CC3)ccn1 [Compound 100, 1,4,6,7-tetrahydro-3-(2-methyl-4-pyridinyl)-N-[1-(1-naphthalenylmethyl)-3(R)-piperidinyl]-5H-pyrazolo[4,3-c]pyridine-5-carboxamide] | 0.4 | 3.7 |  |
| COc1cccc(F)c1CN1CCC[C@@H](NC(=O)N2CCc3[nH]nc(-c4ccncc4)c3C2)C1 [Compound 53, N-[1-[(2-fluoro-6-methoxyphenyl)methyl]-3(R)-piperidinyl]-1,4,6,7-tetrahydro-3-(4-pyridinyl)-5H-pyrazolo[4,3-c]pyridine-5-carboxamide] | 0.15 | 3.8 | < 20 |
| CC(=O)n1cc(CN2CCC[C@@H](NC(=O)N3CCc4[nH]nc(-c5ccncc5)c4C3)C2)c2ccccc21 [Compound 62, N-[1-[(1-acetyl-1H-indol-3-yl)methyl]-3(R)-piperidinyl]-1,4,6,7-tetrahydro-3-(4-pyridinyl)-5H-pyrazolo[4,3-c]pyridine-5-carboxamide] | 2.1 | 2.01 |  |
| Cc1cc(-c2n[nH]c3c2CN(C(=O)NC2CCCN(Cc4c(C)cccc4C)C2)CC3)ccn1 (stereo not shown) [Compound 84, N-[1-[(2,6-dimethylphenyl)-methyl]-3-piperidinyl]-1,4,6,7-tetrahydro-3-(2-methyl-4-pyridinyl)-5H-pyrazolo[4,3-c]pyridine-5-carboxamide] | 0.13 | 6.3 |  |
| O=C(N[C@@H]1CCCN(Cc2c(F)cccc2F)C1)N1CCc2[nH]nc(-c3ccncc3)c2C1 [Compound 54, N-[1-[(2,6-difluorophenyl)methyl]-3(R)-piperidinyl]-1,4,6,7-tetrahydro-3-(4-pyridinyl)-5H-pyrazolo[4,3-c]pyridine-5-carboxamide] | 0.51 | 1.97 |  |

The next lines start with results.

| Kd (ERK protein) [nM] | IC50 (Mouse ERK2 protein; Table 2, 30 μM ATP) [nM] | Compound | IC50 (Mouse ERK2 protein; Table 1, class symbols, 30 μM ATP) [nM] |
| --- | --- | --- | --- |
| 1.51 | 1.78 | Cc1ccc(CN2CCC[C@@H](NC(=O)N3CCc4[nH]nc(-c5ccncc5)c4C3)C2)s1 [Compound 59, 1,4,6,7-tetrahydro-N-[1-[(5-methyl-2-thienyl)methyl]-3(R)-piperidinyl]-3-(4-pyridinyl)-5H-pyrazolo[4,3-c]pyridine-5-carboxamide] |  |
| 0.7 | 0.89 | Cc1ccccc1[C@@H]1CN(C)C[C@H]1NC(=O)N1CCc2[nH]nc(-c3ccncc3)c2C1 [Compound 46, 1,4,6,7-tetrahydro-N-[1-methyl-4(R)-(2-methylphenyl)-3(S)-pyrrolidinyl]-3-(4-pyridinyl)-5H-pyrazolo[4,3-c]pyridine-5-carboxamide] |  |
| 0.37 | 0.65 | O=C(N[C@@H]1CCCN(Cc2ccccc2F)C1)N1CCc2[nH]nc(-c3ccncc3)c2C1 [Compound 48, N-[1-[(2-fluorophenyl)methyl]-3(R)-piperidinyl]-1,4,6,7-tetrahydro-3-(4-pyridinyl)-5H-pyrazolo[4,3-c]pyridine-5-carboxamide] |  |
| 0.03 | 4.2 | COc1cccc(F)c1CN1CCC[C@@H](NC(=O)N2CCc3[nH]nc(-c4ccc5nccn5c4)c3C2)C1 [Compound 113, N-[1-[(2-fluoro-6-methoxyphenyl)methyl]-3(R)-piperidinyl]-1,4,6,7-tetrahydro-3-(imidazo[1,2-a]pyridin-6-yl)-5H-pyrazolo[4,3-c]pyridine-5-carboxamide] |  |
| 0.12 | 3.1 | O=C(N[C@@H]1CCCN(Cc2cccc3ccccc23)C1)N1CCc2[nH]nc(-c3ccc4nccn4c3)c2C1 [Compound 112, 1,4,6,7-tetrahydro-3-imidazo[1,2-a]pyridin-6-yl-N-[1-(1-naphthalenylmethyl)-3(R)-piperidinyl]-5H-pyrazolo[4,3-c]pyridine-5-carboxamide] |  |
